The IC50 is the concentration at which inhibition is half-maximal. Read a high IC50 as weaker potency in that assay.

The test system of test [1] is G3BP1- and FUS R495X-positive puncta in U2OS cells with tdTomato-tagged endogenous G3BP1. Briefly: Dissolution of puncta induced by FUS R495X expression. It is filed as cell-based. The following applies: for extraction of FUS R495X from granules: result in words; for G3BP1 puncta eliminated / reduction in number of puncta positive for FUS R495X: FUS R495X-transfected cells, 50 μM for 30 min. The procedure: (§1) U2OS cells with knock-in of G3BP1-tdTomato ([Yang et al., 2020]) were seeded into 96-well plates (3904; Corning). Either GFP-VCP-A232E or GFP-FUS-R495X were transfected into cells using ViaFect transfection reagent (Promega) 24 h prior to the start of the experiment. For samples to be treated with compounds G3Ia or G3Ia′, Hoechst (1:5,000; Biotium) was added and incubated for 30 min prior to the start of the experiment, washed once with PBS, and the media was changed to 100 μl FluoroBrite DMEM media (Gibco) upon starting the experiment. Imaging of plates was performed on a Cytation C10 spinning disk confocal (BioTek) with a Hamamatsu Orca-Flash 4.0 camera using Gen5 software (version 3.11). Imaging was performed through an Olympus Plan Apo 40× 0.6 NA dry objective with an adjustable collar set to 0.5 μm thickness. Laser autofocus prior to imaging the tdTomato channel was utilized for each image. The temperature was maintained at 37°C on the instrument and the cells were supplied with 5% CO2. A 7 × 7 tilescan was taken at the center of each well, capturing the tdTomato and GFP channels (and Hoechst when present). After completing the tilescan, 100 μl FluoroBrite with 100 μM (2×) G3I compound (vortexed for 5 s) was added to each well and incubated for 20 min before starting another round of imaging in the same locations as the first round. Samples treated with G3Ib or G3Ib′ were analyzed manually, scoring each cell with spontaneous granules for the presence or absence of granules following treatment with the compound. For experiments in which G3I compounds were pretreated prior to transfection, 50 μM of indicated compound or vehicle control were added to U2OS cells 20 min prior to the addition of the transfection reagent. After 24 h of transfection, the cells were washed with PBS, fixed in 4% formaldehyde, and incubated with Hoechst (1:5,000; Biotium) in PBS for 30 min prior to the start of the experiment, washed once with PBS, and at room temperature imaging on the Cytation C10 spinning disk confocal was performed as described above.
Samples treated with G3Ia or G3Ia′ were analyzed using an automated pipeline. Segmentation was performed in both ilastik and Cellpose 2.0. Nuclear segmentation using the Hoechst channel and granule segmentation in both GFP and tdTomato channels was performed via pixel classification in ilastik using small cropped portions of the tilescan as the training dataset for each. Individual cell segmentation was performed in Cellpose 2.0 by inputting a merged RGB of the Hoechst and G3BP1-tdTomato channels. The Cellpose output was then eroded by one pixel and set as a binary mask in Fiji. The original three raw channels, three output masks from ilastik, and the one mask generated from Cellpose were all inputted into CellProfiler to generate per-cell measurements for granules as defined by GFP or tdTomato.

In test [2] the test system is VCP A232E-induced stress granules in U2OS cells with tdTomato-tagged endogenous G3BP1. The test is described as follows: Dissolution of stress granules induced by GFP-VCP A232E expression. The following applies: 50 μM for 30 min; automated puncta tracking for G3Ia, manual blinded cell tracking for G3Ib. It is filed as cell-based. How it is done: as §1, with “After 24 h of transfection, the cells were washed with PBS, fixed in 4% formaldehyde, and incubated with Hoechst (1:5,000; Biotium) in PBS for 30 min prior to the start of the experiment, washed once with PBS, and at room temperature imaging on the Cytation C10 spinning disk confocal was performed as described above.” left out
Samples treated with G3Ia or G3Ia′ were analyzed using an automated pipeline. […]

Test [3] deals with stress granule formation in U2OS cells stably expressing G3BP1-GFP. Briefly: Preincubation, arsenite-induced stress granule formation, live cell imaging in U2OS. It is filed as cell-based. The following applies: for reduction of total stress granule area / reduction of stress granule formation compared with inactive enantiomer: 20 min pretreatment; for reduction of total stress granule area / stress granule formation: 500 μM NaAsO2; for reduction of stress granule formation compared with inactive enantiomer: 250 μM NaAsO2; for stress granule formation: any tested dose (5, 20, 50 μM). The procedure:
For preincubation of compounds, U2OS or HeLa cells stably expressing G3BP1-GFP or CRISPR-modified cells expressing TDP-43-GFP/G3BP1-GFP were seeded into eight-well Lab-Tek chambered cover glass (Nunc). […] This solution was vortexed for 5 s, added to the cells at 250 μl per well, and left to incubate on the microscope for 20 min. Conditions were maintained at 37°C and 5% CO2 using a Bold Line Cage Incubator (Okolab) and an objective heater (Bioptechs). During this incubation time, 5 xy fields were stored per condition, with each field having ∼20–30 cells within it. After the 20-min incubation, 250 μl of 500 μM or 1 mM (2×) sodium arsenite (Sigma-Aldrich) diluted in the FluoroBrite media with an appropriate amount of G3I compound or DMSO was added to the sample. Imaging began immediately after, with images at each xy field being taken every 1 min. For heat shock experiments, U2OS G3BP1-GFP-expressing cells were seeded into a 35-mm glass bottom dish (MatTek). Prior to the experiment, 1.5 ml FluoroBrite DMEM media (Gibco) supplemented with 10% FBS and 4 mM L-glutamine was combined with 0.1% DMSO or 50 μM G3I compound. The sample was incubated on the environmentally controlled microscope for 20 min. During this incubation time, 10 xy fields were stored per condition. After the 20-min incubation, acquisition began with each xy position being imaged every 30 s. 2 min into the acquisition, the objective heater was ramped to 43°C and maintained this temperature until ramped back down to 37°C at 32 min into the acquisition. All imaging was acquired on a Yokogawa CSU W1 spinning disk attached to a Nikon Ti2 eclipse with a Photometrics Prime 95B camera using Nikon Elements software (v5.20.00 to v5.21.02). Imaging was performed through a Nikon Plan Apo 60× 1.40 NA oil objective with Immersol 518 F (refractive index 1.518; Zeiss), and Perfect Focus 2.0 (Nikon) was engaged for all captures.
Automated granule detection and measurement were performed using a combination of ilastik and CellProfiler software. Briefly, ND2 multipoint timelapse files were resaved as image sequences in Fiji with the Bio-Formats plugin so that individual frames of the movies could be treated as individual images for analysis. From there, pixel classification in ilastik was used to segment both stress granules and the total cellular area within the field using the G3BP1-GFP channel via machine learning. These segmentations, along with the original G3BP1-GFP image, were input into CellProfiler, where objects were defined using the masks from ilastik.

For test [4], the target named is T1, full-length 6x-His-tagged human G3BP1 (Homo sapiens, UniProt Q13283).
T1 construct: 10 nM full-length 6x-His-tagged human G3BP1; made in house; host or cells: E. coli BL21 (DE3)
T1 sequence (Q13283 whole entry): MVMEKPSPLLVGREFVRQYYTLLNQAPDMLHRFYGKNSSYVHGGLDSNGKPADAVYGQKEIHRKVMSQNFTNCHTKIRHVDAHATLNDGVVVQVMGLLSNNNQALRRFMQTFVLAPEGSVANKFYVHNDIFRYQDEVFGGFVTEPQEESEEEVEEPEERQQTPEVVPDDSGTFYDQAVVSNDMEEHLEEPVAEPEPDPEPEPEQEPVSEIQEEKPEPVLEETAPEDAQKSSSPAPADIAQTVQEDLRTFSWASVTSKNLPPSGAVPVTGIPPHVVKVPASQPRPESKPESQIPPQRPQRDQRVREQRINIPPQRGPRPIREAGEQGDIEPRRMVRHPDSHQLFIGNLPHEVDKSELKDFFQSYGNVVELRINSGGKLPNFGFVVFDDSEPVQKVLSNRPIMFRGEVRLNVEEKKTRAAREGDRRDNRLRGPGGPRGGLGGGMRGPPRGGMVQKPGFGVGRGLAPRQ
Briefly: Peptide displacement assay (Pep-FRET). It is filed as binding. To be noted: for IC50: displacement of FAM-labeled peptide probe, 60 min, room temperature; for displacement of FAM-labeled FGDF peptide from G3BP1: result in words, Fig. 1 C. How it is done:
Peptide displacement assays were performed in 20 μl total volume at 25°C at pH 7.4 in buffer containing 20 mM Tris-HCl, pH 7.5, 100 mM NaCl, 0.01% bovine serum albumin, 1 mM DTT, and 0.005% Tween-20. 10 nM full-length 6x-His-tagged human G3BP1 was added to the reaction mix containing the test compound and 0.5 nM anti-His-Tb antibody (PerkinElmer). […] Assay plates were shaken for 30 s, then centrifuged for 30 s, and then incubated at room temperature for 60 min. Data were read on an EnVision Multilabel plate reader at 495/520 nm. HTRF ratios were calculated as described by PerkinElmer and IC50s were calculated using GraphPad Prism 9 software and the [Inhibitor] versus Response—Variable Slope (four parameter) fit equation.

Consider `CC(NC(=O)C(NC(=O)C(NC(=O)CCC(C)(C)C)C(C)(C)O)C(C)c1ccccc1)C(=O)N1CCCC1c1ccccc1` (stereo not drawn) [G3Ib], for which the “extraction of FUS R495X from granules” value in test [1] is “unable to extract FUS R495X from granules”. Besides, the “dissolution of VCP A232E-induced stress granules” value (“dissolution” for short) in test [2] is on record as 69%. For the same compound, the “reduction of total stress granule area” value in test [3] (5 μM) is recorded as about 50%. Also, the “reduction of total stress granule area” value in test [3] (20 μM) is about 85%. Besides, in test [3] (50 μM), the “reduction of stress granule formation compared with inactive enantiomer” value is about 94% and the “reduction of total stress granule area” value was about 93%. Also, in test [4], the IC50 came to 0.7 µM and the “displacement of FAM-labeled FGDF peptide from G3BP1” value (from here on “displacement”) was “potently displaced”.
Regarding `COCCC(NC(=O)C(C)NC(=O)C(NC(=O)C(NC(=O)C(F)CC(C)(C)C)C(C)(C)O)C(C)c1ccccc1)C(=O)N(C)Cc1ccccc1` (stereo not drawn) [G3Ia], in test [1], the G3BP1 puncta eliminated is given as 92%, the “reduction in number of puncta positive for FUS R495X” value is 3% and the “extraction of FUS R495X from granules” value is on record as “unable to extract FUS R495X from granules”. Also, in test [2], the “dissolution” value came out at 83%. Also, the “reduction of total stress granule area” value in test [3] (5 μM) is listed as about 36%. Besides, in test [3] (20 μM), the “reduction of total stress granule area” value is recorded as about 59%. In addition, in test [3] (50 μM), the “reduction of stress granule formation compared with inactive enantiomer” value is listed as about 86% and the “reduction of total stress granule area” value is listed as about 80%. Also, in test [4], the IC50 was found to be 1.5 µM and the “displacement” value was “potently displaced”.
With `CC(NC(=O)C(NC(=O)C(NC(=O)CCC(C)(C)C)C(C)(C)O)C(C)c1ccccc1)C(=O)N1CCCC1c1ccccc1` (stereo not drawn) [G3Ib′], the “dissolution” value in test [2] is recorded as 6%. Moreover, the stress granule formation entry in test [3] was “not significantly altered”. In addition, in test [4], the IC50 was over 50 µM and the “displacement” value is recorded as “little effect”.
`COCCC(NC(=O)C(C)NC(=O)C(NC(=O)C(NC(=O)C(F)CC(C)(C)C)C(C)(C)O)C(C)c1ccccc1)C(=O)N(C)Cc1ccccc1` (stereo not drawn) [G3Ia′]: in test [1], the G3BP1 puncta eliminated is on record as 6% and the “reduction in number of puncta positive for FUS R495X” value turned out to be 4%. In test [3], the stress granule formation result is on record as “not significantly altered”. In test [4], the IC50 was over 50 µM and the “displacement” value is “little effect”.

(Values after paper PMC10824102, “Identification of small molecule inhibitors of G3BP-driven stress granule formation” (The Journal of Cell Biology, 2024).)
